# Experimental data as given in article PMC8312610, “F4, a collagen XIX-derived peptide, inhibits tumor angiogenesis through αvβ3 and α5β1 integrin interaction” (Cell Adhesion & Migration, 2021).
# “Also recorded” adds a separate entry of the source. Positions of bridges follow the written chain, without caps; N, C: chain ends. No end group written: not given here.
# How the values were obtained:
# [1] = tested on: HUVEC (Human Umbilical Vein Endothelial Cells); assay: HUVEC proliferation (crystal violet); type: cell-based; details: 40 μM, 48 h, 5,000 HUVEC per well in ECGM, 560 nm, means ± SD (n = 16), N = 3
# Experimental: Figure 1. […] 5,000 HUVEC were seeded in a 96 well plate and incubated with or without 40 μM NC1(XIX) or F4 for 48 hours. After washing, cells were fixed with glutaraldehyde and stained with crystal violet. Dye was eluted with 10% acetic acid and absorbance was read at 560 nm. The values are the means ± SD (n = 16). The experiment was repeated three times (N = 3) and the results presented in the figure correspond to the more representative one
# Human Umbilical Vein Endothelial Cells (HUVEC) (Ref C-12253) were purchased from Promocell. They were grown in Endothelial Cell Growth Medium (ECGM) (Promocell, Ref C-22110: Basal medium supplemented with 0.02 mL/mL Fetal Calf Serum, 0.004 mL/mL Endothelial Cell Growth Supplement, 0.1 ng/mL Epidermal Growth Factor (recombinant human), 1 ng/mL Basic Fibroblast Growth Factor (recombinant human), 90 μg/mL Heparin, 1 μg/mL Hydrocortisone) at +37°C in a humid atmosphere containing 5% CO2. PromoCell Detach Kit was used for the detachment of HUVEC according to the manufacturer’s protocols (Promocell, ref C-41200).
# For cell proliferation measurement, 5,000 HUVEC were seeded in 96-well plates and cultivated in ECGM with or without 40 μM NC1(XIX) or F4 at +37°C in a humid atmosphere containing 5% CO2. […] Dye was eluted with 10% (v/v) acetic acid and absorbance was read at 560 nm.
# [2] = tested on: tumor cell; parameters: method as in PMID 26621838; details: in vitro; ref [36]; cited from earlier work
# [3] = tested on: αvβ3 integrin; assay: Solid phase competition assay with biotinylated-F4, αvβ3; type: binding, human; details: unlabeled F4, molar ratio 1/0 to 1/125, integrin coated at 26 × 10^−7 mol/L, 90 min, room temperature, N = 2
# From the text: Figure 5. F4 directly binds to αvβ3 and α5β1 integrins. Direct interaction between αvβ3 or α5β1 integrin and F4 was studied using solid phase assays as described in the material and method section. The F4 peptide was biotinylated to allow its detection using the streptavidin-peroxidase complex. Different conditions were used. (a-b) The amounts of coated αvβ3 (a) or α5β1 integrin (b) were increased while biotinylated F4 peptide was kept constant. (c-d) The concentration of biotinylated F4 peptide was increased while coated amounts of αvβ3 (c) or α5β1 (d) integrins were kept constant. (e-f) Competitive assays were performed using increasing concentrations of F4 peptide while biotinylated-F4 peptide and αvβ3 (e) or α5β1 (f) integrins were kept constant. The solid phase assays were repeated twice (N = 2; n = 2)
# Wells of a 96-well plate were coated with α5β1 (ref. 3230-A5-050, R&D systems) and/or αvβ3 integrin (ref. 3050-AV-050, R&D systems) at different concentrations ranging from 26 × 10^−7 mol/L to 0.1 × 10^−7 mol/L (100 μL per well in PBS). The 96-well plate was left overnight at room temperature. The coating was then blocked with TBS containing 5% nonfat dry milk, 1 mM MgCl2 and 1 mM CaCl2 for 2 h at room temperature. […] The intensity of the yellow coloration was measured at 450 nm with an LB940 spectrophotometer (Berthold Technologies). […]
# [4] = tested on: Sprague Dawley rat aortic rings; assay: Ex vivo rat aortic ring assay (endothelial cell outgrowth); type: cell-based
# Experimental: Figure 3. NC1(XIX) and F4 inhibit endothelial cell ex vivo migration. Rat aortic rings were embedded in Matrigel in 24 well-plate and then incubated with or without 40 μM NC1(XIX) or F4 for 14 days. Micro-vessel outgrowth was observed under an inverted microscope after 14 days and photographed (a). Cell outgrowth from the tissue explant was measured using a home-made macro based on ImageJ analysis software. The results are presented as mean ± SD (n = 5 replicates) (b). The experiment was repeated twice (N = 2)
# The ex vivo rat aortic ring assay was adapted from Baker et al.. Thoracic aorta was dissected from Sprague Dawley rat and stored in Opti-MEM (ThermoFisher, ref 31985062) supplemented with 1% penicillin/streptomycin in a Petri dish. Aorta was then cut into 0.5 mm rings that were incubated in Opti-MEM overnight at +37°C in a Petri dish. Matrigel (7 mg/mL) was loaded in 24-well plate and allowed to polymerize at +37°C for 30 min. The rings were carefully transferred from the Petri dish onto the Matrigel coated wells and were completely embedded by addition of Matrigel. The plate was incubated at +37°C for 30 min. Opti-MEM supplemented with 30 ng/mL VEGF with or without 40 μM NC1(XIX) or F4 was added. Plate was incubated at +37°C in a humid atmosphere containing 5% CO2 for 14 days. The supplemented culture medium was changed every 3 days. Rings were imaged under an inverted light microscope at 14 days. Quantitative evaluation of the angiogenic sprouting was determined by measuring the number of endothelial cell outgrowth from the primary tissue explant using a homemade macro based on ImageJ analysis software. The first step consisted in the semi-automatic selection of aortic ring shape at day 0 by manual threshold allowing the design of a top hat filter to obtain a relevant mask of this structure. The mask was then substracted from day 14 image to keep only outgrowing cells. The second step consisted in a manual threshold and the use of ‘Analyze Particules’ tool involving size criteria. The total cell number of cell outgrowing from the ring was determined.
sequence,measurement,setting,value
"CNPEDCLYPVSHAHQR (disulfide 1-6 (inferred)) [F4, collagen XIX-derived peptide, released by plasmin from type XIX collagen]",effect on HUVEC proliferation,[1],not significantly modified; also recorded: does not affect endothelial cell proliferation
same,tumor cell migration,[2],inhibits in vitro tumor cell migration
same,competition with biotinylated-F4 binding to αvβ3,[3],decreased consequently
same,"cell outgrowth, F4 compared with NC1(XIX)","[4]; 40 μM, 14 days, Opti-MEM with 30 ng/mL VEGF",even stronger than NC1(XIX) effect
same,change of cell outgrowth from aortic ring vs control,"[4]; 40 μM, 14 days, Opti-MEM with 30 ng/mL VEGF, Matrigel, mean ± SD (n = 5), N = 2, p < 0.01 NC1(XIX), p < 0.001 F4",−78%
same,"anti-angiogenic effect on aortic endothelial sprouting, F4 compared with NC1(XIX) (discussion)",[4]; ex vivo,even greater than the whole NC1(XIX) domain
same,inhibition of endothelial sprouting,[4]; rat aortic ring assay (abstract),endothelial sprouting in a rat aortic ring assay
